{
  "source": "the supplement of paper PMC10307832",
  "assay_in_all_cases": "relative viability (nuclei count vs DMSO), 5 days (fraction); higher = more cells survive",
  "key": {"[1]": {"compound": "Cc1ccc2nc(NCCN)c3ncc(C)n3c2c1 + Nc1nc2[nH]cc(CCc3ccc(C(=O)N[C@@H](CCC(=O)O)C(=O)O)cc3)c2c(=O)[nH]1 [Pemetrexed] (partner 0.2 µM)", "how_it_was_run": "(§1)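 Lung cancer cell lines were pin-tool dosed in 1536-well plates on the day after seeding, with either a lone drug or a fixed anchor-drug dose plus five library-drug doses (not always all listed) in √10 steps. Nuclei were counted on 4× images after 5 days. Relative viability is the ratio of treated-well to vehicle-well nuclei counts, with each value a median of duplicate plates.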"}, "[2]": {"compound": "Cc1ccc2nc(NCCN)c3ncc(C)n3c2c1 + O=C(c1cc(Cc2n[nH]c(=O)c3ccccc23)ccc1F)N1CCN(C(=O)C2CC2)CC1 [Olaparib] (partner 8 µM)", "how_it_was_run": "as §1"}, "Salubrinal + Dasatinib": {"compound": "O=C(/C=C/c1ccccc1)NC(NC(=S)Nc1cccc2cccnc12)C(Cl)(Cl)Cl [Salubrinal] + Cc1nc(Nc2ncc(C(=O)Nc3c(C)cccc3Cl)s2)cc(N2CCN(CCO)CC2)n1 [Dasatinib] (partner 0.075 µM)", "how_it_was_run": "as §1"}, "[3]": {"compound": "Cc1ccc2nc(NCCN)c3ncc(C)n3c2c1 + Cc1nc(NC(=O)N2CCC[C@H]2C(N)=O)sc1-c1ccnc(C(C)(C)C(F)(F)F)c1 [Alpelisib] (partner 2 µM)", "how_it_was_run": "as §1"}},
  "data": [
    {"cell line": "UMC-11", "values": [
      {"measurement": "relative viability", "setting": "[1]; first compound 0.04 µM", "value": 0.858},
      {"measurement": "relative viability", "setting": "[1]; first compound 0.1265 µM", "value": 0.744},
      {"measurement": "relative viability", "setting": "[1]; first compound 0.4 µM", "value": 0.808},
      {"measurement": "relative viability", "setting": "[1]; first compound 1.265 µM", "value": 0.734},
      {"measurement": "relative viability", "setting": "[1]; first compound 4 µM", "value": 0.674},
      {"measurement": "relative viability", "setting": "[2]; first compound 0.04 µM", "value": 0.376},
      {"measurement": "relative viability", "setting": "[2]; first compound 0.1265 µM", "value": 0.355},
      {"measurement": "relative viability", "setting": "[2]; first compound 0.4 µM", "value": 0.388},
      {"measurement": "relative viability", "setting": "[2]; first compound 1.265 µM", "value": 0.35},
      {"measurement": "relative viability", "setting": "[2]; first compound 4 µM", "value": 0.301},
      {"measurement": "relative viability", "setting": "Salubrinal + Dasatinib; first compound 0.08 µM", "value": 0.654},
      {"measurement": "relative viability", "setting": "Salubrinal + Dasatinib; first compound 0.253 µM", "value": 0.306},
      {"measurement": "relative viability", "setting": "Salubrinal + Dasatinib; first compound 0.8 µM", "value": 0.621},
      {"measurement": "relative viability", "setting": "Salubrinal + Dasatinib; first compound 2.53 µM", "value": 0.458},
      {"measurement": "relative viability", "setting": "Salubrinal + Dasatinib; first compound 8 µM", "value": 0.471},
      {"measurement": "relative viability", "setting": "[3]; first compound 0.04 µM", "value": 0.946},
      {"measurement": "relative viability", "setting": "[3]; first compound 0.1265 µM", "value": 0.906},
      {"measurement": "relative viability", "setting": "[3]; first compound 0.4 µM", "value": 1.03},
      {"measurement": "relative viability", "setting": "[3]; first compound 1.265 µM", "value": 0.995},
      {"measurement": "relative viability", "setting": "[3]; first compound 4 µM", "value": 0.817}
    ]}
  ]
}
